Values joined by “and” are separate entries in the source; they are usually repeats but may differ in a detail not shown here. Equal entries are not always repeated. Structures can show the parent of a compound that is named as a salt.

The target in the first experiment is T1, Human ATX protein (Homo sapiens, UniProt Q13822).
T1 construct: made in house
In words: ATX biochemical assay (FRET, FS-3 substrate). As to conditions: FRET assay, FS-3 2 μM, ATX 1.0 μg/mL, 30 minutes preincubation, 2 hours reaction at room temperature; read-out: IC50. In short, it runs like this:
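In-house human ATX (1.0 μg/mL final) was preincubated with compound for 30 min at room temperature in Tris buffer pH 7.4 with 1 mg/mL fatty acid free-BSA. FS-3 substrate (2 μM final) was then hydrolysed for 2 hours at room temperature, protected from light, and read as fluorescence at ex 485/em 538 nm.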
In the case of `O=C(CCc1nc2ccccc2s1)N1CCc2c(C(F)(F)F)nn(Cc3ccc(F)cc3)c2C1` [Example 1-14, 3-(Benzo[d]thiazol-2-yl)-1-(1-(4-fluorobenzyl)-3-(trifluoromethyl)-4,5-dihydro-1H-pyrazolo[3,4-c]pyridin-6(7H)-yl)propan-1-one], the IC50 was at most 100 nM. On the same count and under the same terms, the same measure for `CCOC(=O)C1CCCN(CC(=O)N2CCc3c(C(F)(F)F)nn(Cc4ccc(Cl)cc4F)c3C2)CC1` (stereo not shown) [Example 12-17, TFA salt]: at most 100 nM; for `O=C(C1CCCCC1)N1CCc2c(C(F)(F)F)nn(Cc3ccc(Cl)cc3F)c2C1` [Example 1-6, (1-(4-Chloro-2-fluorobenzyl)-3-(trifluoromethyl)-4,5-dihydro-1H-pyrazolo[3,4-c]pyridin-6(7H)-yl) (cyclohexyl)methanone]: over 10000 nM.

For the compound `CCOC(=O)CCNCC(=O)N1CCc2c(C(F)(F)F)nn(Cc3ccc(F)cc3)c2C1` [Example 12-9, Ethyl 3-(2-(1-(4-fluorobenzyl)-3-(trifluoromethyl)-4,5-dihydro-1H-pyrazolo[3,4-c]pyridin-6(7H)-yl)-2-oxoethylamino)propanoate], the IC50 was over 10000 nM. Consider `CN(C)c1nn(Cc2ccc(F)cc2)c2c1CCN(C(=O)C[C@H]1CC[C@H](C(=O)O)CC1)C2` [Example 5-43, trans-4-(2-(3-(Dimethylamino)-1-(4-fluorobenzyl)-4,5-dihydro-1H-pyrazolo[3,4-c]pyridin-6 (7H)-yl)-2-oxoethyl)cyclohexanecarboxylic acid], for which the IC50 was at most 100 nM. In the case of `O=C(C[C@H]1CC[C@@H](C(=O)O)CC1)N1CCc2c(C(F)(F)F)nn(Cc3cc(F)cc(Cl)c3)c2C1` [Example 5-4, cis-4-(2-(1-(3-chloro-5-fluorobenzyl)-3-(trifluoromethyl)-4,5-dihydro-1H-pyrazolo[3,4-c]pyridin-6(7H)-yl)-2-oxoethyl)cyclohexanecarboxylic acid], the IC50 was at most 100 nM.

As to `CN1CCC(CC(=O)N2CCc3c(C(F)(F)F)nn(Cc4ccc(Cl)cc4F)c3C2)CC1` [Example 1-2, 1-(1-(4-Chloro-2-fluorobenzyl)-3-(trifluoromethyl)-4,5-dihydro-1H-pyrazolo[3,4-c]pyridin-6(7H)-yl)-2-(1-methylpiperidin-4-yl)ethanone], the IC50 is at most 100 nM. On to `O=C(O)C[C@H]1CC[C@H](CC(=O)N2CCc3c(C(F)(F)F)nn(Cc4ccc(F)cc4)c3C2)CC1` [Example 5-48, 2-(trans-4-(2-(1-(4-Fluorobenzyl)-3-(trifluoromethyl)-4,5-dihydro-1H-pyrazolo[3,4-c]pyridin-6(7H)-yl)-2-oxoethyl)cyclohexyl)acetic acid], for which the IC50 is at most 100 nM.

In the case of `CCOC(=O)C1CCC(CC(=O)N2CCc3c(C(F)(F)F)nn(Cc4ccccc4)c3C2)CC1` (stereo not shown) [Example 1-13, Ethyl 4-(2-(1-benzyl-3-(trifluoromethyl)-4,5-dihydro-1H-pyrazolo[3,4-c]pyridin-6(7H)-yl)-2-oxoethyl)cyclohexanecarboxylate], the IC50 is at most 100 nM. In the case of `O=C(CC1CC(N2CCOCC2)C1)N1CCc2c(C(F)(F)F)nn(Cc3ccc(F)cc3)c2C1` (stereo not shown) [Example 22-5, 1-(1-(4-Fluorobenzyl)-3-(trifluoromethyl)-4,5-dihydro-1H-pyrazolo[3,4-c]pyridin-6(7H)-yl)-2-(3-morpholinocyclobutyl)ethanone TFA salt], the IC50 was at most 100 nM.

In the case of `CNC12CCC(C(=O)N3CCc4c(C(F)(F)F)nn(Cc5ccc(F)cc5)c4C3)(CC1)CC2` [Example 9-22, (1-(4-Fluorobenzyl)-3-(trifluoromethyl)-4,5-dihydro-1H-pyrazolo[3,4-c]pyridin-6(7H)-yl)(4-(methylamino)bicyclo[2.2.2]octan-1-yl)methanone TFA salt], the IC50 lay in the range of 250 to 500 nM. In the case of `O=C(O)C12CCC(C(=O)N3CCc4c(C(F)(F)F)nn(Cc5ccc(F)cc5)c4C3)(CC1)C2` [Example 5-50, 4-(1-(4-Fluorobenzyl)-3-(trifluoromethyl)-4,5,6,7-tetrahydro-1H-pyrazolo[3,4-c]pyridine-6-carbonyl)bicyclo[2.2.1]heptane-1-carboxylic acid], the IC50 was at most 100 nM. Regarding `CCOC(=O)[C@H]1CC[C@H](CC(=O)N2CCc3c(C(F)(F)F)nn(C4CCCCC4)c3C2)CC1` [Example 1-24, trans-Ethyl 4-(2-(1-cyclohexyl-3-(trifluoromethyl)-4,5-dihydro-1H-pyrazolo[3,4-c]pyridin-6(7H)-yl)-2-oxoethyl)cyclohexanecarboxylate], the IC50 was in the range of 250 to 500 nM. On the same count and under the same terms, to `O=C(CC1CC2CNCC2C1)N1CCc2c(C(F)(F)F)nn(Cc3ccc(Cl)cc3F)c2C1` (stereo not shown) [Example 9-21, 1-(1-(4-Chloro-2-fluorobenzyl)-3-(trifluoromethyl)-4,5-dihydro-1H-pyrazolo[3,4-c]pyridin-6(7H)-yl)-2-(octahydrocyclopenta[c]pyrrol-5-yl)ethanone TFA salt] belongs at most 100 nM; to `COC(=O)[C@H]1CC[C@H](N(C)C(=O)N2CCc3c(C(F)(F)F)nn(Cc4ccc(Cl)cc4F)c3C2)CC1` [Example 3-4, trans-Methyl 4-(1-(4-chloro-2-fluorobenzyl)-N-methyl-3-(trifluoromethyl)-4,5,6,7-tetrahydro-1H-pyrazolo[3,4-c]pyridine-6-carboxamido)cyclohexanecarboxylate], 100 to 250 nM; to `O=C(O)CN1CCC(C(=O)N2CCc3c(C(F)(F)F)nn(Cc4ccc(F)cc4)c3C2)C1` (stereo not shown) [Example 15-4, 2-(3-(1-(4-Fluorobenzyl)-3-(trifluoromethyl)-4,5,6,7-tetrahydro-1H-pyrazolo[3,4-c]pyridine-6-carbonyl)pyrrolidin-1-yl)acetic acid TFA salt], at most 100 nM. On to `CCOC(=O)[C@H]1CC[C@H](CC(=O)N2CCc3c(C(F)(F)F)nn(Cc4ccc(F)cc4F)c3C2)CC1` [Example 1-50, trans-Ethyl 4-(2-(1-(2,4-difluorobenzyl)-3-(trifluoromethyl)-4,5-dihydro-1H-pyrazolo[3,4-c]pyridin-6(7H)-yl)-2-oxoethyl)cyclohexanecarboxylate], for which the concentration for half-maximal inhibition (IC50) is at most 100 nM.

`COC(=O)c1ccc(CC(=O)N2CCc3c(C(F)(F)F)nn(Cc4ccc(Cl)cc4F)c3C2)cc1` [Example 1-11, Methyl 4-(2-(1-(4-chloro-2-fluorobenzyl)-3-(trifluoromethyl)-4,5-dihydro-1H-pyrazolo[3,4-c]pyridin-6(7H)-yl)-2-oxoethyl)benzoate]: the IC50 is at most 100 nM. Consider `O=C(C[C@H]1CC[C@@H](C(=O)O)CC1)N1CCc2c(C(F)(F)F)nn(C3CCCCC3)c2C1` [Example 7-20, cis-4-(2-(1-cyclohexyl-3-(trifluoromethyl)-4,5-dihydro-1H-pyrazolo[3,4-c]pyridin-6(7H)-yl)-2-oxoethyl)cyclohexanecarboxylic acid], for which the IC50 was > 500 nM and ≤ 10000 nM.

As for `O=C(C[C@H]1CC[C@H](C(=O)O)CC1)N1CCc2cnn(Cc3ccc(Cl)cc3F)c2C1` [Example 7-3, trans-4-(2-(1-(4-Chloro-2-fluorobenzyl)-4,5-dihydro-1H-pyrazolo[3,4-c]pyridin-6(7H)-yl)-2-oxoethyl)cyclohexanecarboxylic acid], the IC50 was at most 100 nM. On the same count and under the same terms, to `N[C@H]1CC[C@@H](CC(=O)N2CCc3c(C(F)(F)F)nn(Cc4ccc(F)cc4)c3C2)CC1` [Example 9-18, 2-(cis-4-Aminocyclohexyl)-1-(1-(4-fluorobenzyl)-3-(trifluoromethyl)-4,5-dihydro-1H-pyrazolo[3,4-c]pyridin-6(7H)-yl)ethanone TFA salt] belongs at most 100 nM; to `CCOC(=O)[C@H]1CC[C@H](CC(=O)N2CCc3c(C4CC4)nn(Cc4ccc(F)cc4)c3C2)CC1` [Example 1-39, trans-Ethyl 4-(2-(3-cyclopropyl-1-(4-fluorobenzyl)-4,5-dihydro-1H-pyrazolo[3,4-c]pyridin-6(7H)-yl)-2-oxoethyl)cyclohexanecarboxylate], at most 100 nM. Same read-out and setting: the same measure for `COC(=O)C1CCN(CC(=O)N2CCc3c(C(F)(F)F)nn(Cc4ccc(F)cc4)c3C2)C1` (stereo not shown) [Example 12-7, Methyl 1-(2-(1-(4-fluorobenzyl)-3-(trifluoromethyl)-4,5-dihydro-1H-pyrazolo[3,4-c]pyridin-6(7H)-yl)-2-oxoethyl)pyrrolidine-3-carboxylate]: at most 100 nM. `CCOc1nn(Cc2ccc(F)cc2)c2c1CCN(C(=O)C[C@H]1CC[C@H](C(=O)O)CC1)C2` [Example 5-42, trans-4-(2-(3-Ethoxy-1-(4-fluorobenzyl)-4,5-dihydro-1H-pyrazolo[3,4-c]pyridin-6(7H)-yl)-2-oxoethyl)cyclohexanecarboxylic acid]: the IC50 was at most 100 nM. For the compound `O=C(C[C@H]1CC[C@H](C(=O)O)CC1)N1CCc2c(C(F)(F)F)nn(Cc3cncs3)c2C1` [Example 5-28, trans-4-(2-Oxo-2-(1-(thiazol-5-ylmethyl)-3-(trifluoromethyl)-4,5-dihydro-1H-pyrazolo[3,4-c]pyridin-6(7H)-yl)ethyl)cyclohexanecarboxylic acid], the IC50 was at most 100 nM. Same read-out and setting: the same measure for `CCOC(=O)[C@H]1CC[C@H](CC(=O)N2CCc3c(CO)nn(Cc4ccc(F)cc4)c3C2)CC1` [Example 1-41, trans-Ethyl-4-(2-(1-(4-fluorobenzyl)-3-(hydroxymethyl)-4,5-dihydro-1H-pyrazolo[3,4-c]pyridin-6(7H)-yl)-2-oxoethyl)cyclohexanecarboxylate]: 250 to 500 nM; for `O=C(CC1CNCCO1)N1CCc2c(C(F)(F)F)nn(Cc3ccc(F)cc3)c2C1` (stereo not shown) [Example 9-16, 1-(1-(4-Fluorobenzyl)-3-(trifluoromethyl)-4,5-dihydro-1H-pyrazolo[3,4-c]pyridin-6(7H)-yl)-2-(morpholin-2-yl)ethanone TFA salt]: at most 100 nM.

The experiment is the same for the next values; noted with them: IC50, FRET assay, FS-3 2 μM, ATX 1.0 μg/mL, 30 minutes preincubation, 2 hours reaction at room temperature.
Regarding `O=C(O)C1CC2CCC(C1)N2CC(=O)N1CCc2c(C(F)(F)F)nn(Cc3ccc(Cl)cc3F)c2C1` (stereo not shown) [Example 13-4, 8-(2-(1-(4-Chloro-2-fluorobenzyl)-3-(trifluoromethyl)-4,5-dihydro-1H-pyrazolo[3,4-c]pyridin-6(7H)-yl)-2-oxoethyl)-8-azabicyclo[3.2.1]octane-3-carboxylic acid], the concentration for half-maximal inhibition (IC50) was at most 100 nM.

By IC50 is commonly meant the point on the concentration scale where inhibition reaches its midpoint.

(Values after patent US10144732B2 (BIOGEN MA INC., priority 2014, dated 2018).)
